# Source: patent US20060111305A1, “Metabolites of certain [1,4]diazepino[6,7,1-ij]quinoline derivatives and methods of preparation and use thereof” (Wyeth, priority 2004, published 2006)
# Assays:
# [1] = Metabolite profiles of DCDQ in human plasma and urine by LC/MS (Table 33); format: in vivo, healthy human subjects; parameters: key to Matrix (in which DCDQ / metabolite was characterized by LC/MS): P = plasma; U = urine; settings: for Matrix (in which DCDQ / metabolite was characterized by LC/MS): human plasma and urine, healthy subjects receiving DCDQ
# Method: Drug administration and specimen collection were performed in a randomized, double-blinded, placebo-controlled, ascending single dose study of the safety, tolerability, pharmacokinetics, and pharmacodynamics of DCDQ administered orally to healthy subjects and subjects with schizophrenia and schizoaffective disorder. The specimens were stored at approximately −70° C. until analysis for metabolite profiles and for ratios of carbamoyl glucuronide (M6) to DCDQ.
# Two subjects with medium and high exposure to DCDQ in the 25 mg multiple ascending dose study were also analyzed by LC/MS for metabolite profiles. The 8 hr plasma samples collected on day 1 and day 14 from subjects 9 and 41 were processed and analyzed as described below. No internal standard was added to the samples analyzed for metabolite profiles.
# LC/MS System 1 was used for analysis of plasma and urine samples for metabolite characterization. The HPLC equipment used with this LC/MS System consisted of an Agilent Model 1100 HPLC system (Agilent Technologies, Palo Alto, Calif.) including an autosampler, binary pump and diode array UV detector. The UV detector was set to monitor 210 to 350 nm. The HPLC mobile phase consisted of 10 mM ammonium acetate, pH 4.5 (A) and methanol (B), and was delivered at 0.2 mL/min. The linear mobile phase gradient (HPLC Gradient 1) is shown below. During LC/MS sample analysis, up to 6 min of the initial flow was diverted away from the mass spectrometer prior to evaluation of metabolites.
# The mass spectrometer used for metabolite characterization with LC/MS System 1 was a Finnigan LCQ-Deca ion trap mass spectrometer (Thermo Electron, San Jose, Calif.). This mass spectrometer was equipped with an electrospray ionization (ESI) interface and operated in the positive ionization mode. Settings for the LCQ mass spectrometer are listed below.
# LC/MS System 2 was used to provide additional MS/MS data for characterization of DCDQ metabolites in urine. The HPLC equipment used with LC/MS System 2 consisted of a Waters model 2695 HPLC system (Waters Corp., Milford, Mass.). It was equipped with a built-in autosampler and a model 996 diode array UV detector. The UV detector was set to monitor 210-400 nm. The HPLC column, mobile phases, flow rate, diversion of flow away from the mass spectrometer and gradient were as described above for LC/MS System 1. The column temperature was 25° C.
# The mass spectrometer used for metabolite characterization with LC/MS System 2 was a Micromass Quattro Micro triple quadrupole mass spectrometer (Waters Corp.). This mass spectrometer was equipped with an electrospray interface and operated in the positive ionization mode. Settings for this mass spectrometer are listed below.
# [2] = Incubation of [14C]DCDQ with human liver microsomes (Km values, metabolite formation); format: in vitro ADME; settings: for metabolite detected in microsomal incubation: human
# Method: (§1) [^14C]DCDQ was mixed with non-radiolabeled DCDQ (1:3 or 1:5) in the incubations. Microsomal incubations consisted of [^14C]DCDQ, magnesium chloride (10 mM) and liver microsomes incubated in 0.5 mL of 0.1 M potassium phosphate buffer, pH 7.4. [^14C]DCDQ (20 μL) in water was added to the incubation tubes containing buffer, magnesium chloride solution and microsomes. After mixing, the tubes were pre-incubated for 2 minutes in a shaking water bath at 37° C. The reactions were initiated by the addition of UDPGA or the NADPH regenerating system. UDPGA was added to incubations as a 50 μL aliquot of a 20 mM solution in water, to give a final concentration of 2 mM. An NADPH regenerating system (30 μL) was added to incubations to evaluate CYP450-mediated metabolism. The NADPH regenerating system consisted of glucose-6-phosphate (2 mg/mL), glucose-6-phosphate dehydrogenase (0.8 units/mL) and NADP^+ (2 mg/mL). Control incubations were conducted under the same conditions, but without the NADPH generating system, UDPGA or microsomes. All incubations were performed in duplicate. Incubations were stopped by the addition of 0.5 mL ice-cold methanol. Samples were vortex-mixed. Denatured proteins were separated by centrifugation at 4300 rpm and 4° C. for 10 minutes (Model T21 super centrifuge, Sorvall). The protein pellets were extracted with 0.5 mL of methanol. The supernatant was combined for each sample, mixed and evaporated to a volume of about 0.3 mL under a nitrogen stream in a Zymark TurboVap LV evaporator (Caliper Life Science, Hopkinton, Mass.). The concentrated sample was centrifuged and aliquots were radioassayed and analyzed by HPLC. This method recovered an average of 92.1% of the radioactivity from the reaction mixture.
# (§2) Initial rate conditions were determined for DCDQ metabolism in incubations with human liver microsomes in the presence of NADPH or UDPGA. Incubations for the time course study contained 20 μM of [^14C]DCDQ and 0.5 mg/mL of microsomal proteins, and were incubated at 37° C. with mild shaking for 0, 5, 10, 20, 30, 40, 50 and 60 minutes. The protein dependence study was conducted with 20 μM of [^14C]DCDQ incubated for 20 minutes with 0, 0.1, 0.25, 0.5, 0.75 and 1.0 mg/mL of microsomal proteins.
# (§3) The Km values were determined with 0.5 mg/mL of human liver microsomes incubated with [^14C]DCDQ for 20 minutes with the NADPH regenerating system or for 10 minutes with UDPGA. [^14C]DCDQ concentrations used were 0.5,1, 5, 10, 25, 50, 75 and 100 μM.
# (§4) To evaluate species differences in cytochrome P450- and UGT-mediated metabolism, [^14C]DCDQ was incubated for 20 minutes with 0.5 mg/mL liver microsomal proteins from mice, rats, dogs or humans in the presence of the NADPH regenerating system or UDPGA. The assay conditions were the same as described above, and DCDQ concentrations were 12 μM and 56 μM for cytochrome P450- and UGT-mediated metabolism, respectively.
# (§5) A Waters model 2690 HPLC system (Waters Corp., Milford, Mass.) with a built-in autosampler was used for analysis. Separations were accomplished on a Phenomenex Luna C18(2) column (2×150 mm, 5 μm) (Phenomenex, Torrance, Calif.) coupled with a filter (4×2 mm) cartridge. A variable wavelength UV detector set to monitor 250 nm and Flo-One β Model A525 radioactivity flow detector (Perkin Elmer) with a 250 μL LQTR flow cell were used for data acquisition. The flow rate of Ultima Flow M scintillation fluid was 1 mL/min, providing a mixing ratio of scintillation cocktail to mobile phase of 5:1. The sample chamber in the autosampler was maintained at 4° C., while the column was at ambient temperature of about 20° C. The mobile phase consisted of 10 mM ammonium acetate, pH 4.5 (A) and methanol (B) and was delivered at 0.2 mL/min. The linear gradient conditions were as follows: […]
# [3] = test system: cytochrome P450 (NADPH-dependent metabolism); test: as above; format: in vitro ADME; settings: pH 7.4; 0.5 mg/mL human liver microsomes, [14C]DCDQ 0.5-100 μM, NADPH regenerating system, 20 min
# Method: as §1, §2, §3, §4, §5
# [4] = NADPH regenerating system, 12 μM DCDQ, 20 min
Structure (SMILES),Matrix (in which DCDQ / metabolite was characterized by LC/MS) [1],"metabolite detected in microsomal incubation [2, 4]",Km at 20 min [3] [µM],"amount of metabolite detected ([2]; human liver microsomes, DCDQ 20 μM, both NADPH and UDPGA)","metabolite detected in microsomal incubation ([2]; UDPGA, 56 μM DCDQ)","relative abundance in human plasma ([1]; all dose groups, single and multiple dose studies)",relative abundance in human urine ([1]; in vivo)
"c1cc2c3c(c1)[C@H]1CCC[C@H]1CN3CCNC2 [DCDQ, (9aR,12aS)-4,5,6,7,9,9a,10,11,12,12a-decahydro-cyclopenta[c][1,4]diazepine[6,7,1-ij]quinoline, reference compound]","P, U",–,–,–,–,–,–
"OC1CN2C[C@@H]3CCC[C@@H]3c3cccc(c32)CN1 (some centres unmarked) [Metabolite M1, hydroxy DCDQ]","P, U",detected,10.8,–,–,–,–
"OC1[C@@H]2CCC[C@@H]2c2cccc3c2N1CCNC3 (some centres unmarked) [Metabolite M2, hydroxy DCDQ]",–,detected,8.9 to 13.8,–,–,–,–
"[O-][N+]12CCN=Cc3cccc(c31)[C@H]1CCC[C@H]1C2 (some centres unmarked) [Metabolite M5, DCDQ imine N-oxide]",P,detected,36.2,–,–,–,–
"O=C(O)[C@H]1O[C@@H](OC(=O)N2CCN3C[C@@H]4CCC[C@@H]4c4cccc(c43)C2)[C@H](O)[C@@H](O)[C@@H]1O [Metabolite M6, carbamoyl glucuronide of DCDQ]","P, U",–,–,only minor amounts,detected,predominant drug-related component,predominant drug-related component
